Data reported in ChEMBL document CHEMBL1135486, “Acylating agents as enzyme inhibitors and understanding their reactivity for drug design” (J Med Chem, 2002).

Test: Second-order rate constant (M-1 s-1) for the alkaline hydrolysis in water at 30 degrees C
Conditions: buffer

SMILES	kOH [M⁻¹ s⁻¹]
CC(=O)N(C)C(C)=O	1.54
CCC[C@H](NC(=O)N1C(=O)C(CC)(CC)C1Oc1ccc(C(=O)N2CCN(C)CC2)cc1)c1ccc2c(c1)OCO2 (some centres undefined)	0.027
CN1CCCC1=O [METHYLPYRROLIDONE]	3.07
O=C1CCCN1c1ccccc1	0.000013
O=C1CCCN1 [2-PYRROLIDONE]	1.2
CC(C)[C@@H]1C(=O)N(S(C)(=O)=O)[C@@H]2CCN(C(=O)/C=C/CN3CCCCC3)[C@H]21	0.07
CC(=O)N(C)S(=O)(=O)Cc1ccccc1	1.3
CC(C)[C@@H]1C(=O)N(S(C)(=O)=O)[C@@H]2CCN(C(=O)c3coc(CN4CCCC4)n3)[C@H]21	0.08
C=CC[C@H]1C(=O)OC2CCN(C(=O)OCc3ccccc3)[C@@H]21 (some centres undefined)	0.252
CCOC(C)=O [ETHYL ACETATE]	0.164
O=C1CCCO1 [BUTYROLACTONE]	1.31
O=C1c2ccccc2S(=O)(=O)N1Cc1ccccc1	4.06
CC(C)[C@@H]1C(=O)N(S(C)(=O)=O)[C@@H]2CCN(C(=O)C3CN(CC(C)(C)C)C3)[C@H]21	0.0601
CN1C(=O)CCC1=O	0.825
